Measurements as given in the supplement of paper PMC10933438, “Inhibition of urease-mediated ammonia production by 2-octynohydroxamic acid in hepatic encephalopathy” (Nature Communications, 2024).

How the values were obtained:
Assay in all cases: revertant-positive wells per 48 wells (Ames fluctuation test); higher = more mutagenic; extreme values may be limits of the assay
Conditions in all cases: exposure time: 90 min
[1] = tested on: Salmonella typhimurium TA100
Description: (§1)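 Ames MPF Penta 1 microplate fluctuation assay (Xenometrix): bacteria exposed to compound (in DMSO) for 90 min at 37 °C with or without rat liver S9 fraction, then 2-day selection in histidine/tryptophan-free pH-indicator medium in 384-well plates; read-out is the number of revertant (yellow) wells out of 48, triplicate; compound considered mutagenic at >=2-fold over negative (DMSO) control baseline. Zero wells at high doses reflect cytotoxicity.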

[2] = tested on: Salmonella typhimurium TA1535
Description: as §1

[3] = tested on: Salmonella typhimurium TA1537
Description: as §1

[4] = tested on: Salmonella typhimurium TA98
Description: as §1

CC(=O)NO [acetohydroxamic acid]
revertant-positive wells per 48 wells, [1]
Conditions	0.01 mM	0.05 mM	0.5 mM	1 mM	5 mM	10 mM
S9 metabolic activation: with S9	–	7.33	7.33	10.3	15	18.7
S9 metabolic activation: without S9	3.67	4.33	–	5.67	13.3	17.3

CCCCCCCC(=O)NO [octanohydroxamic acid]
revertant-positive wells per 48 wells
Conditions	0.01 mM	0.05 mM	0.5 mM	1 mM	5 mM	10 mM
[1], S9 metabolic activation: with S9	3.67	6.33	–	–	5	0
[1], S9 metabolic activation: without S9	5	7.67	6	8.67	0	0
[2], S9 metabolic activation: with S9	–	2	–	–	–	0
[2], S9 metabolic activation: without S9	1	–	–	–	0	0
[3], S9 metabolic activation: with S9	–	1	0	0	0	0
[3], S9 metabolic activation: without S9	–	–	–	–	0	0

CCCCCC#CC(=O)NO [2-octynohydroxamic acid]
revertant-positive wells per 48 wells
Conditions	0.01 mM	0.05 mM	0.5 mM	1 mM	5 mM	10 mM
[1], S9 metabolic activation: with S9	9.33	6	0.333	0	0	0
[1], S9 metabolic activation: without S9	3	3	1.33	0	0	0
[2], S9 metabolic activation: with S9	0.333	2	0.667	1.33	0	0
[2], S9 metabolic activation: without S9	1	1	1.67	0.667	0	0
[3], S9 metabolic activation: with S9	0.333	1.33	0	0	0	0
[3], S9 metabolic activation: without S9	1	0.333	1.33	3	0	0
[4], S9 metabolic activation: with S9	0	1	1	0.333	0	0
[4], S9 metabolic activation: without S9	1.67	0.333	1.67	0	0	0
